The subject of experiment [1] is Tyrosine-protein kinase ABL1 (Homo sapiens), P00519 [Q252H]. As to conditions: at 10 µM.
Experiment [2] has as its target Phosphatidylinositol 4-phosphate 3-kinase C2 domain-containing subunit beta (Homo sapiens) (UniProt O00750). In words: Selectivity interaction (KinomeScan (DiscoverX)) EUB0001079a PIK3C2B. As to conditions: at 1 µM.
Experiment [3] has as its target Cyclin-dependent kinase 15 (Homo sapiens) (UniProt Q96Q40). In words: Selectivity interaction (KinomeScan (DiscoverX)) EUB0000092b CDK15. As to conditions: at 10 µM.
In experiment [4] the target is Glycogen synthase kinase-3 beta (Homo sapiens, UniProt P49841). In words: Selectivity interaction (KinomeScan (DiscoverX)) EUB0000695a GSK3B. As to conditions: at 100 nM.
Experiment [5] concerns the target SRSF protein kinase 2 (Homo sapiens) (UniProt P78362). Nature of the experiment: Selectivity interaction (KinomeScan (DiscoverX)) EUB0000695a SRPK2. As to conditions: at 100 nM.
Experiment [6] concerns the target T1, Mitogen-activated protein kinase kinase kinase 13 (Homo sapiens) (UniProt O43283).
T1 sequence (whole entry): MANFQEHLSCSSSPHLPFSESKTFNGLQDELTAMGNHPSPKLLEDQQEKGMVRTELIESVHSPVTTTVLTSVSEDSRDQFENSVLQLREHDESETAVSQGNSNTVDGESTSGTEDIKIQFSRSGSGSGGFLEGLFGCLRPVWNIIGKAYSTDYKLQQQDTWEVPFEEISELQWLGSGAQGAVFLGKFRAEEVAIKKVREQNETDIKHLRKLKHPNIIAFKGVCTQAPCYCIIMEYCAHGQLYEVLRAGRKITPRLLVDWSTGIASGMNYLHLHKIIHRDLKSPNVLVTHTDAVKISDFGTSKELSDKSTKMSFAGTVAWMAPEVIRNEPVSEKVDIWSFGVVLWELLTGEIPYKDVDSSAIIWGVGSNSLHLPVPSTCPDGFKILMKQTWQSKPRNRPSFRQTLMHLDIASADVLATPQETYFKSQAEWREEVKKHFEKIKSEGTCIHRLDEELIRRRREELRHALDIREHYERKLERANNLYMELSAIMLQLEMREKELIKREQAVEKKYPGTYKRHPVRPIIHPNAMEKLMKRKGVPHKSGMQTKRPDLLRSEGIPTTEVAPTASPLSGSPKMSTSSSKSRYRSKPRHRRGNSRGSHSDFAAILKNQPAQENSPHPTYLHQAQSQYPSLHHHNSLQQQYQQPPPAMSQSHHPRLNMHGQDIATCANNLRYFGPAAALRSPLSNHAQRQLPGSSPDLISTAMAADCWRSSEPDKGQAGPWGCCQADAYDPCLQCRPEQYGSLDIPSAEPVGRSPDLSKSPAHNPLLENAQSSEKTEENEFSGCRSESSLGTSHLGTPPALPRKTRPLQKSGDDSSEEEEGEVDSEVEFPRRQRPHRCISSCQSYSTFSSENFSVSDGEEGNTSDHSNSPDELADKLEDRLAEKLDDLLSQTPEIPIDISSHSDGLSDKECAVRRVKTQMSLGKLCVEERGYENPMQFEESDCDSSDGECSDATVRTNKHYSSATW
In words: Selectivity interaction (KinomeScan (DiscoverX)) EUB0000607a MAP3K13. As to conditions: at 10 µM.

Experiment [7] addresses T2, Ephrin type-B receptor 3 (Homo sapiens) (UniProt P54753).
T2 sequence (whole entry): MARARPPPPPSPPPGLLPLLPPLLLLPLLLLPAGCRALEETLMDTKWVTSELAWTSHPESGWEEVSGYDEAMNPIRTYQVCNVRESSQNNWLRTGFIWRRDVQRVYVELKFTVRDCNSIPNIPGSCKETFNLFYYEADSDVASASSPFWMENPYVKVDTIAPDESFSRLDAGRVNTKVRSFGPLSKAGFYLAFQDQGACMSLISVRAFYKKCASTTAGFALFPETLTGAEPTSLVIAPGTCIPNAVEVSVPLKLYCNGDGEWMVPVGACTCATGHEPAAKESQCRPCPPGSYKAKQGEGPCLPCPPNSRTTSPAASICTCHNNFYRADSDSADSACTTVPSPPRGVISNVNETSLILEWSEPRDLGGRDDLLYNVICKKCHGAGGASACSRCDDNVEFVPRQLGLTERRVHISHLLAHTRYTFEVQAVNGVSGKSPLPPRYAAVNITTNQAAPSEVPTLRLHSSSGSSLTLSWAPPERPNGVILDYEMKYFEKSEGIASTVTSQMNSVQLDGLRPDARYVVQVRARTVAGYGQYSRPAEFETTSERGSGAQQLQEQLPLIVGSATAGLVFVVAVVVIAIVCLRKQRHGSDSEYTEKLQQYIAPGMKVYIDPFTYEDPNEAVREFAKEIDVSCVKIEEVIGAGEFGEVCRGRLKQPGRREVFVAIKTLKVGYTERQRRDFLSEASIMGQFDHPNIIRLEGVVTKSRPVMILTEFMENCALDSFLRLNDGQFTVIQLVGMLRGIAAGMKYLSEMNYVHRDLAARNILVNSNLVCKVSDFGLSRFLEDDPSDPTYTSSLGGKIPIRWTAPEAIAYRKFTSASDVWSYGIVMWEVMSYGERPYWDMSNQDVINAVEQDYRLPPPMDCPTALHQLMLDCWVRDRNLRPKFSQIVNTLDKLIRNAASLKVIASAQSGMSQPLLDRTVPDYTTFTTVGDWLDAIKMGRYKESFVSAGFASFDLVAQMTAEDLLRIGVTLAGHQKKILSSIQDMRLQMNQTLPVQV
In words: Selectivity interaction (ActivX KiNativ screen (kinase selectivity in THP-1 cell lysates)) EUB0000639a EPHB3. As to conditions: lysate. Type of experiment: subcellular.

Experiment [8] concerns the target Cyclin-dependent kinase 4 (Homo sapiens, UniProt P11802). In words: Selectivity interaction (KinomeScan (DiscoverX)) EUB0000229b CDK4. As to conditions: at 10 µM.
Experiment [9] concerns the target Myosin light chain kinase, smooth muscle (Homo sapiens, UniProt Q15746). In words: Selectivity interaction (ActivX KiNativ screen (ex vivo kinase selectivity in human PBMCs)) EUB0001619a MYLK. In kind it is cell-based. As to conditions: PBMC, at 1 µM.
The target in experiment [10] is Serine/threonine-protein kinase/endoribonuclease IRE1 (Homo sapiens) (UniProt O75460). In words: Selectivity interaction (Kinase panel (KiNativ target engagement assay in Jurkat cells)) EUB0001635a ERN1. Type of experiment: cell-based. The settings on record: Selectivity number of off-targets 0.0, Selectivity number of targets 233.0, Source Knowledge https://www.sciencedirect.com/science/article/pii/S2451945619300674?via%3Dihub, at 1 µM.

The results in this text go back to ChEMBL document CHEMBL5465560, “Selectivity Literature for EUbOPEN Chemogenomic Library” (2024).

Sequence of SRSF protein kinase 2 (Homo sapiens) (P78362 whole entry, looked up): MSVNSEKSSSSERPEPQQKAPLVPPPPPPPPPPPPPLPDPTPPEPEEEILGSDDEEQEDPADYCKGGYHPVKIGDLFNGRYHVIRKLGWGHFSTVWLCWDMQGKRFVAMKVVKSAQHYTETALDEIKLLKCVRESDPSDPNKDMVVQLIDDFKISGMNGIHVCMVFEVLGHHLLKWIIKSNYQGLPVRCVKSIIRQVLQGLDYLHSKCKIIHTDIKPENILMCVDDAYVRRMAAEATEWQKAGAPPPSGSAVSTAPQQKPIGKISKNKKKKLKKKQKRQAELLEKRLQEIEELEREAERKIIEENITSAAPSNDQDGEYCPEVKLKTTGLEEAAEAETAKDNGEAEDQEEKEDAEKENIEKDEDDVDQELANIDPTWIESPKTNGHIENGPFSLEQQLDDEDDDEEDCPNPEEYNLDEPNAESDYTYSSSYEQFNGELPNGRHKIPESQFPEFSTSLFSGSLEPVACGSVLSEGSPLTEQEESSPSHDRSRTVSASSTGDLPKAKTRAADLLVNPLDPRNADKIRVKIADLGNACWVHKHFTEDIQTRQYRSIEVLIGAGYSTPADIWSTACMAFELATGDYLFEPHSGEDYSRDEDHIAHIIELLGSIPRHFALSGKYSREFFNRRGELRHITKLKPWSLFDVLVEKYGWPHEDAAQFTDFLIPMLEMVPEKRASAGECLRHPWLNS
Sequence of Glycogen synthase kinase-3 beta (P49841 whole entry, looked up): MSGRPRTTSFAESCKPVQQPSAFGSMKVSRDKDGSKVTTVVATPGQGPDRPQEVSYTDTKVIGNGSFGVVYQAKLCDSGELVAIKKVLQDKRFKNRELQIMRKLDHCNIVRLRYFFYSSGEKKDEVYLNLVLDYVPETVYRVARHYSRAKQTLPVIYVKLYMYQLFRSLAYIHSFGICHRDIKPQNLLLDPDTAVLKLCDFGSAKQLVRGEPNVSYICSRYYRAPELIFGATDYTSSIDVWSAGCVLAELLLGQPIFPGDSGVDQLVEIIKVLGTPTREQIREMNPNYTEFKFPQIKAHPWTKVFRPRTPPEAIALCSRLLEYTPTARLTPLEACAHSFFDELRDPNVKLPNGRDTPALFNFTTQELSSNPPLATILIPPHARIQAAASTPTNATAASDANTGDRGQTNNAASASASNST
Sequence of Myosin light chain kinase, smooth muscle (Q15746 whole entry): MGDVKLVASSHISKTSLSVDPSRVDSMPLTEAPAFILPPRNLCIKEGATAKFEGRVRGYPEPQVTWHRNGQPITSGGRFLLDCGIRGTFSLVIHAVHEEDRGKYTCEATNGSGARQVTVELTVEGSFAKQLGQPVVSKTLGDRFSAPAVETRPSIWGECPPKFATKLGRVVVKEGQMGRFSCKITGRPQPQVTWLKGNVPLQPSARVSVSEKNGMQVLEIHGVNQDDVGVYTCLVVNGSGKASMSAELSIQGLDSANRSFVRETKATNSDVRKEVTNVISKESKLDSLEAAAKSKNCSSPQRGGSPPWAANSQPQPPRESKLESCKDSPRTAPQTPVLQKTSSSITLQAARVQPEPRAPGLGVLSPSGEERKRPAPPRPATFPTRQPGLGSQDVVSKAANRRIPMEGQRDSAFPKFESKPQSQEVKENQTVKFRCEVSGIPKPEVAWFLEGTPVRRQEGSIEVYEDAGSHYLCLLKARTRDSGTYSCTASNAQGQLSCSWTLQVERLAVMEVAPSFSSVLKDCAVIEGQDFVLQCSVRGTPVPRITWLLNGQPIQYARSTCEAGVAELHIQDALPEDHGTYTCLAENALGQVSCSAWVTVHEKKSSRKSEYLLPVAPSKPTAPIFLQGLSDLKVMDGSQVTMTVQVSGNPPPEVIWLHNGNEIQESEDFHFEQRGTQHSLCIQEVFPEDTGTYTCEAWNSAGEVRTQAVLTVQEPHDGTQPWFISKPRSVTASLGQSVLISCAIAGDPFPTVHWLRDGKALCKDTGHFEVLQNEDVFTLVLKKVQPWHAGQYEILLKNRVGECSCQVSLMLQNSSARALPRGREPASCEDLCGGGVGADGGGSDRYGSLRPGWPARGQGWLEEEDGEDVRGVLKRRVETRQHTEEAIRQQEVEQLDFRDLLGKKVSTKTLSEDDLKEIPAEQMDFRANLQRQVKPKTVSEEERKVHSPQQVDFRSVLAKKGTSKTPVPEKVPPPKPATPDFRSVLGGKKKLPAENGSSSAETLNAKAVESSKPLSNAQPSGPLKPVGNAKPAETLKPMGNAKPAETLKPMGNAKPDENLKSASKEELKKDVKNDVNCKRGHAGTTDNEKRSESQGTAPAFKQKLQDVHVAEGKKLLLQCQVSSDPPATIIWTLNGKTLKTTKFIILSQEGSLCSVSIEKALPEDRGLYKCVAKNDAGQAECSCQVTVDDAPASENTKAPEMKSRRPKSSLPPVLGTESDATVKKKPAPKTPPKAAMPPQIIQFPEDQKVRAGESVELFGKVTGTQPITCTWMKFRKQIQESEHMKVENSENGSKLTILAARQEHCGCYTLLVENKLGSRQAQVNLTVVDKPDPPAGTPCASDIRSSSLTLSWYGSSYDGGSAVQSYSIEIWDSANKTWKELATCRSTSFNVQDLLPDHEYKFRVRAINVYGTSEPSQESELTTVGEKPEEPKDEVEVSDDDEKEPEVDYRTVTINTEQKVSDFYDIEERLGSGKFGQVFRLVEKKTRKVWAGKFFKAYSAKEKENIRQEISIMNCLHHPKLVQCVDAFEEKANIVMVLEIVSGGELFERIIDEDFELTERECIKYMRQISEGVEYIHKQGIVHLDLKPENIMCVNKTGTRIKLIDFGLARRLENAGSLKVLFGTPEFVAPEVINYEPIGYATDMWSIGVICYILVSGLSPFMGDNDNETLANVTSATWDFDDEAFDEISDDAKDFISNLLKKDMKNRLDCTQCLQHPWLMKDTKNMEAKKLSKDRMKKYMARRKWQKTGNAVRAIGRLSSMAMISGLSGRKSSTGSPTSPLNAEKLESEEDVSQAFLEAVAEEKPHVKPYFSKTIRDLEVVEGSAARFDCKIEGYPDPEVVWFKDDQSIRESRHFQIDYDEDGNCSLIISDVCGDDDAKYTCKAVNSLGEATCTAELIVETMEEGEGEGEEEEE
Sequence of Cyclin-dependent kinase 15 (Homo sapiens) (Q96Q40 whole entry): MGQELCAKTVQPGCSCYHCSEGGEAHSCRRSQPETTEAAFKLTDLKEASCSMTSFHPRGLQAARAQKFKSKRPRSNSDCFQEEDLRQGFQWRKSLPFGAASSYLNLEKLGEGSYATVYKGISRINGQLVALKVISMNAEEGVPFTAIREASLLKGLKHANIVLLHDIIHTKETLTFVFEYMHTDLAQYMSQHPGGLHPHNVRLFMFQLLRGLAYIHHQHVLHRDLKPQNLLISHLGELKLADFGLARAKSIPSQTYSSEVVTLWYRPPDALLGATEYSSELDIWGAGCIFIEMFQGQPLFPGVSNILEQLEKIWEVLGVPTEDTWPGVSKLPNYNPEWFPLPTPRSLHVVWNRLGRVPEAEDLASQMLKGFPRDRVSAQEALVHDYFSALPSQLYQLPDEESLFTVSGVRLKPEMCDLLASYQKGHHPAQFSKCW
Sequence of Cyclin-dependent kinase 4 (P11802 whole entry): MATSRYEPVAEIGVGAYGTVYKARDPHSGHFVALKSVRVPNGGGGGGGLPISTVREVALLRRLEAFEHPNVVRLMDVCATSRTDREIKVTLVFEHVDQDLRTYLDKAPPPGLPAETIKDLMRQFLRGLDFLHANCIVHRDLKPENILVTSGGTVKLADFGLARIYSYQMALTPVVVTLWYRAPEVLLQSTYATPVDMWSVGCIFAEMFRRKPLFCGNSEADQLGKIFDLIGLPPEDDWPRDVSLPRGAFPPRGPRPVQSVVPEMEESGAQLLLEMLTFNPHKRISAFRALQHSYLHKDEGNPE
Sequence of Serine/threonine-protein kinase/endoribonuclease IRE1 (Homo sapiens) (O75460 19-977 limits assumed): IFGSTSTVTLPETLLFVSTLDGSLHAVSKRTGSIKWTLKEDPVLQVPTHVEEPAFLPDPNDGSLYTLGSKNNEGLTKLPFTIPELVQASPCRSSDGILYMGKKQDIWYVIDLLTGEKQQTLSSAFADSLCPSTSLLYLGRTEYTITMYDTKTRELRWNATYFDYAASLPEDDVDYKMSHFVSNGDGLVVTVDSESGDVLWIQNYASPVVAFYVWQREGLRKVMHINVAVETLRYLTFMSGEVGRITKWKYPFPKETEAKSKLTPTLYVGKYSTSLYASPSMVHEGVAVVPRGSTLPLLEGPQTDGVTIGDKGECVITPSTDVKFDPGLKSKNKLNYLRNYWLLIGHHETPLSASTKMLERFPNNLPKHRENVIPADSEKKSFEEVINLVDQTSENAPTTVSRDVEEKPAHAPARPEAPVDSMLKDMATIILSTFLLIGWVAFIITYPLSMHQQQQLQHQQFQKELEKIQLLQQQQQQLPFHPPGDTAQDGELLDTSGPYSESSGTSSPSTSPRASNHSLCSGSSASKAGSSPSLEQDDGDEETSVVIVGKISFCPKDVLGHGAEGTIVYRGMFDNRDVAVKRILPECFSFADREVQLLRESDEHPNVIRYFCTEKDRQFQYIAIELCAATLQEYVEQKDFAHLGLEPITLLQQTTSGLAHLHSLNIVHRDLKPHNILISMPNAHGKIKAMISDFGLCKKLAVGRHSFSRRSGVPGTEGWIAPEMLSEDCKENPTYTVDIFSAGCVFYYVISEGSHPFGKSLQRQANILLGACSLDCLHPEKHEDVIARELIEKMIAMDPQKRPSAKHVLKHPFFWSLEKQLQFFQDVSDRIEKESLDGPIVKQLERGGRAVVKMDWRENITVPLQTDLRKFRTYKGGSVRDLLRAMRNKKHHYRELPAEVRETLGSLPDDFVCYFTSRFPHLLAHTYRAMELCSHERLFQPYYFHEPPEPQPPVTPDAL

Regarding `CCN(CC)CCCCNc1ncc2cc(-c3cc(OC)cc(OC)c3)c(NC(=O)NC(C)(C)C)nc2n1`, in experiment [1], the % of control came to 100%.
As for `Nc1cnc(N2CCc3cc(S(=O)(=O)Nc4c(F)cc(Cl)cc4F)cc(N4CCCC4=O)c32)nc1` [TP-020n], in experiment [2], the % of control turned out to be 83%.
In experiment [3], `CCC(=O)N1CCN(c2ccc(-n3c(=O)ccc4cnc5ccc(-c6cnc7ccccc7c6)cc5c43)cc2C(F)(F)F)CC1` came in with a % of control of 88%.
For `Cc1cc(F)c(C(=O)Nc2cccc(-c3nncn3C(C)C)n2)cc1-n1cnc(C2CC2)c1`, the % of control in experiment [4] and in [5] was 100% each time.
On to `CNC(=O)Nc1ccc(-c2nc(N3CC4CCC(C3)O4)c3cnn(C4CCC5(CC4)OCCO5)c3n2)cc1`, for which, in [6], the % of control is 82%.
`CC[C@@H]1[C@H](F)C(=O)N[C@@H]1COc1nccc2cc(C(N)=O)c(OC)cc12` [ZIMLOVISERTIB]: the % of inhibition is -3.9% in experiment [7] (at 0.01 µM); -40.1% in experiment [7] (at 0.04 µM); -48.3% in experiment [7] (at 0.2 µM); -34.8% in experiment [7] (at 1 µM); -22.6% in [7] (at 5 µM).
In experiment [8], `COc1cc(N(C)c2ccnc3ccc(C(F)(F)F)cc23)cc(OC)c1OC` came in with a % binding of 100%.
For the molecule `N#Cc1cccc(-c2c[nH]c3ncnc(N4CCOCC4)c23)c1`, in experiment [9], the % of inhibition came out at 13%.
Consider `C=CC(=O)Nc1ccc(C(=O)Nc2[nH]nc3c2CN(C(=O)N[C@H](CN(C)C)c2ccccc2)C3(C)C)cc1`, for which, in experiment [10], the % of engagement is -0.9%.
